Data from patent US11530244B2, “Cyclic polypeptides for PCSK9 inhibition” (priority 2018, dated 2022).
Starred links: 1 amine or outer side, 2 acyl side, 3 side chain; linkers in the order of their positions; H or OH if unused. Positions of bridges follow the written chain, without caps; N, C: chain ends. Non-standard residues stand in square brackets, D forms with d. Residues, ends and D or L forms follow the SMILES beside them. ξ: configuration not given here. NHCH2(1,3-C6H4)CH2CO = O=C(Cc1cccc(CN[*:1])c1)[*:2]; Trp(5-OH) = N[C@@H](Cc1c[nH]c2ccc(O)cc12)C(=O)O; Trp(5-F) = N[C@@H](Cc1c[nH]c2ccc(F)cc12)C(=O)O; Phe(4-CH2NH2) = NCc1ccc(C[C@H](N)C(=O)O)cc1; isoGln = NC(=O)[C@H](CCC(=O)[*:2])N[*:1]; Nle(6-COOH) = N[C@@H](CCCCC(=O)O)C(=O)O; X4 = O=C(CCSCc1cccc(CSCCN[*:1])c1)[*:2]; γGlu = O=C(O)[C@H](CCC(=O)[*:2])N[*:1]; mXylylene = c1cc(C[*:1])cc(C[*:2])c1; d(aThr) = C[C@@H](O)[C@@H](N)C(=O)O; X7 = O=C(Cc1ccc(CN[*:1])cc1)[*:2]; αMeP = C[C@@]1(C(=O)O)CCCN1; ξD = NC(CC(=O)O)C(=O)O; Mpa = O=C(O)CCS

Experiments:
Format in all cases: binding
[1] = target: human PCSK9 / human LDLR EGFa domain interaction (Homo sapiens (Human), UniProt Q8NBP7); test: TR-FRET assay of inhibition of the PCSK9-LDLR protein-protein interaction; conditions: TR-FRET, 20 nM human PCSK9, 20 nM human LDLR EGFa domain, 2 hours room temperature; read-out: IC50
human PCSK9 / human LDLR EGFa domain interaction, sequence (Q8NBP7 153-692): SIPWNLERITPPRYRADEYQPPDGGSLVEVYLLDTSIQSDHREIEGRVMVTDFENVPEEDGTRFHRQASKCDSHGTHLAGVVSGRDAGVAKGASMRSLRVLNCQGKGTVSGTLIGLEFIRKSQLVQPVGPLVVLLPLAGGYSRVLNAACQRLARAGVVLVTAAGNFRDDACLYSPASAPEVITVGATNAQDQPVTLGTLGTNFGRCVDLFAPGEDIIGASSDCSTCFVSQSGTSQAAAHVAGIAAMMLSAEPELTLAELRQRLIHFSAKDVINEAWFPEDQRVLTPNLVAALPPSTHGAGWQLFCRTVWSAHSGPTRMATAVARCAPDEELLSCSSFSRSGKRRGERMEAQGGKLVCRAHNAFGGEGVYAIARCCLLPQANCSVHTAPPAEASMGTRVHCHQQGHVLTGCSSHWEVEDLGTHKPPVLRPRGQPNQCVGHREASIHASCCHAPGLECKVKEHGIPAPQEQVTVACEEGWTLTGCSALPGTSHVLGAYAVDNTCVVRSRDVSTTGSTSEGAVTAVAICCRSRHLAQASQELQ
human PCSK9 / human LDLR EGFa domain interaction, sequence (Q8NBP7 31-152 partner): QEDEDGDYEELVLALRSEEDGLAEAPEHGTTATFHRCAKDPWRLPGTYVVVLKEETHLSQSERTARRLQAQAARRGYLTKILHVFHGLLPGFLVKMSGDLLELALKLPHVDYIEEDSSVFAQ
Summary of the method: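 Avitag-biotinylated human PCSK9 (20 nM) and his-tagged human LDLR EGFa domain (20 nM) were incubated with 5 nM Ulight streptavidin and 5 nM europium anti-6×His for 2 h at room temperature. Buffer: 50 mM HEPES, 150 mM NaCl, 5 mM CaCl2, 0.01% BSA, 0.01% P20. IC50 from 4-parameter fit of dose-response.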

PCSK9 [2] = target: T1, PCSK9 (Homo sapiens (Human), UniProt Q8NBP7); test: PCSK9 Alexa FRET Standard assay (displacement of AlexaFluor647 tagged cyclic peptide Reagent A); conditions: PCSK9 Alexa FRET Standard assay, 0.5 nM PCSK9, 20 nM AF cyclic peptide Reagent A; read-out: IC50
T1 sequence (Q8NBP7 153-692): as the sequence (Q8NBP7 153-692) above
Summary of the method: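 TR-FRET displacement: 0.5 nM biotinylated PCSK9 with 1.25 nM Strep-Eu and 20 nM AlexaFluor-tagged cyclic peptide (final) in 50 mM HEPES pH 7.4, 0.15 M NaCl, 5 mM CaCl2, 0.01% BSA, 0.01% P20, ≥2 h at room temperature. IC50 from sigmoidal fit, converted to Ki via peptide KD; falling Eu counts flagged false positives.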

PCSK9 [3] = target: T1, PCSK9; test: PCSK9 Alexa FRET Plus assay (displacement of AlexaFluor647 tagged cyclic peptide Reagent B); conditions: Alexa FRET Plus, 0.5 nM PCSK9, 960 nM AF cyclic peptide Reagent B; read-out: IC50
Summary of the method: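 TR-FRET displacement with final 0.5 nM biotinylated PCSK9, 1.25 nM Strep-Eu and 960 nM AlexaFluor-tagged cyclic peptide in HEPES pH 7.4, NaCl, CaCl2, BSA, P20; ≥2 h at room temperature. IC50 from sigmoidal fit, converted to Ki using peptide KD. Falling europium counts flagged false positives.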

Structure (SMILES)	IC50 [1] [nM]	IC50 (PCSK9 [2]) [nM]	IC50 (PCSK9 [3]) [nM]
COc1ccc(C[C@@H]2NC(=O)[C@@H]([C@@H](C)O)NC(=O)[C@H](CCCCC(=O)O)NC(=O)[C@H](Cc3c[nH]c4ccc(F)cc34)NC(=O)[C@H](Cc3ccc(CN)cc3)NC(=O)[C@@H](C)NC(=O)[C@H](C)NC(=O)CCSCc3cccc(c3)CSCCNC(=O)[C@]3(C)CCCN3C2=O)cc1 [Compound 385] (cyclo(A[dA][Phe(4-CH2NH2)][Trp(5-F)][Nle(6-COOH)][d(aThr)]Y(Me)[αMeP][X4]))	0.1 to 100	0.11 to 100	0.1 to 100
COc1ccc(C[C@@H]2NC(=O)[C@H](Cc3cnc[nH]3)NC(=O)[C@H](CC(=O)O)NC(=O)[C@H](Cc3c[nH]c4ccc(F)cc34)NC(=O)[C@H](Cc3c[nH]c4ccc(F)cc34)NC(=O)[C@@H](C)NC(=O)[C@H](NC(C)=O)CCCCNC(=O)Cc3cccc(c3)CNC(=O)CC[C@@H](C(=O)O)NC(=O)[C@]3(C)CCCN3C2=O)cc1 [Compound 396] (Ac-[dK][dA][Trp(5-F)][Trp(5-F)]DHY(Me)[αMeP][γGlu][NHCH2(1,3-C6H4)CH2CO]; lactam 1-C)	0.1 to 100	0.11 to 100	100 to 500
COc1ccc(C[C@@H]2NC(=O)[C@H](Cc3cnc[nH]3)NC(=O)[C@H](CC(=O)O)NC(=O)[C@H](Cc3c[nH]c4ccc(F)cc34)NC(=O)[C@H](Cc3c[nH]c4ccc(F)cc34)NC(=O)[C@@H](C)NC(=O)[C@H](NC(C)=O)CCCCNC(=O)Cc3ccc(cc3)CNC(=O)CC[C@@H](C(N)=O)NC(=O)[C@]3(C)CCCN3C2=O)cc1 [Compound 398] (Ac-[dK][dA][Trp(5-F)][Trp(5-F)]DHY(Me)[αMeP][isoGln][X7]; lactam 1-C)	0.1 to 100	0.11 to 100	100 to 500

Further lines, results first:

IC50 [1] [nM]	IC50 (PCSK9 [2]) [nM]	IC50 (PCSK9 [3]) [nM]	Structure (SMILES)
0.1 to 100	0.11 to 100	100 to 500	C[C@@]12CCCN1C(=O)[C@H](Cc1ccc(O)cc1)NC(=O)[C@H](Cc1cnc[nH]1)NC(=O)[C@H](CC(=O)O)NC(=O)[C@H](Cc1c[nH]c3ccc(O)cc13)NC(=O)[C@H](Cc1c[nH]c3ccc(F)cc13)NC(=O)CNC(=O)[C@H](CCCCN)NC(=O)CCSCc1cccc(c1)CSC[C@@H](C(N)=O)NC2=O [Compound 399] ([Mpa]KG[Trp(5-F)][Trp(5-OH)]DHY[αMeP]C-NH2; linker 1-10 via mXylylene)
0.1 to 100	0.11 to 100	0.1 to 100	COc1ccc(C[C@@H]2NC(=O)[C@H](Cc3cnc[nH]3)NC(=O)[C@H](CC(=O)O)NC(=O)[C@H](Cc3c[nH]c4ccc(F)cc34)NC(=O)[C@H](Cc3c[nH]c4ccc(F)cc34)NC(=O)[C@@H](C)NC(=O)Cc3cccc(c3)CNC(=O)CC(C(=O)O)NC(=O)[C@]3(C)CCCN3C2=O)cc1 (stereo partly drawn) [Compound 401] ([NHCH2(1,3-C6H4)CH2CO][dA][Trp(5-F)][Trp(5-F)]DHY(Me)[αMeP][ξD]-OH; lactam N-9)
0.1 to 100	0.11 to 100	0.1 to 100	COc1ccc(C[C@@H]2NC(=O)[C@@H]3CCCCC(=O)N[C@H]4C[C@@H](C(=O)N3)N(C4)C(=O)[C@H](Cc3c[nH]c4ccc(F)cc34)NC(=O)[C@H](Cc3c[nH]c4ccc(F)cc34)NC(=O)[C@@H](C)NC(=O)[C@H](CCCN=[N+]=[N-])NC(=O)CCSCc3cccc(c3)CCSCNC(=O)[C@]3(C)CCCN3C2=O)cc1 [Compound 520]
